Data as given in patent publication US10925858B2, “S-nitrosoglutathione (GSNO) and GSNO reductase inhibitors for use in therapy” (MUSC FOUNDATION FOR RESEARCH DEVELOPMENT, priority 2017, dated 2021).

How the values were obtained:
RhoA = RhoA activity assay in thrombin treated hBMVECs; assay type: cell-based, human; conditions: thrombin 0.1 unit/ml 5 min; L-NIO or FeTPPS 10 μM pretreated 30 min; GSNO or SIN-1 various concentrations pretreated 2 hr
Description: Cell culture: Primary human brain microvascular endothelial cells (hBMVECs) were purchased from Angio-Proteomie (Cat #: cAP-0002, Atlanta, Ga.). The cells were cultured in cell culture flasks or plates precoated with Quick Coating Solution (Angio-Proteomie; Cat #: cAP-01) and maintained in Endothelial Growth Medium (Angio-Proteomie; Cat #: cAP-02) at 37° C. under 5% CO2/95% air. When the cells were almost confluent, the medium was replaced with endothelial basal medium (Angio-Proteomie; Cat #: cAP-03) containing 0.5% fetal bovine serum (FBS; Life Technologies, Grand Island, N.Y.) about 8-12 hours before the experiment. No institutional approval was required for this study. The study was not pre-registered.
RhoA activity in hBMVECs was analyzed by RhoA Activation Assay Kit (Abeam Cat #: ab211164, Cambridge, Mass.). Briefly, following drug treatments, the cells were lysed with 1× Assay buffer provided in the kit. Lysates were centrifuged (14,000×g for 10 sec), and supernatants were incubated with agarose beads coupled to GST-Rhotekin-Rho binding domain (RBD) for 2 h at 4° C. Beads were then washed with 1× Assay buffer and GTP-bound RhoA was eluted with 2×SDS-PAGE sample buffer. Amounts of active (GTP-bound) RhoA were determined by Western blot analysis using antibody specific to RhoA (Abeam).

[1] = test system: protein associated S-nitrosothiols; assay: Biotin-switch analysis of protein associated S-nitrosothiols in spleens of EAE mice; assay type: in vivo, C57BL/6 mice; conditions: vs control and EAE mice
Description: Female C57BL/6 mice of 8-12 weeks of age, purchased from Jackson Laboratory, were provided with food and water ad libitum and were kept in pathogen free animal care facility of Medical University of South Carolina (MUSC) throughout the study. All procedures were conducted in accordance with accepted standards of humane care as approved by the Institutional Animal Care and Use Committee (Approved number: AR #1644). EAE was induced as described previously (Nath et al., 2009). Briefly, mice were immunized subcutaneously in the flank regions with MOG35-55 peptide (MOG; 200 μg; Peptide International) emulsified (1:1) in 100 ul complete Freund's adjuvant (CFA) on day 0 and day 7. Additionally, 300 ng of Pertussis toxin (Sigma-Aldrich, St. Louis, Mo.) was given on day 0 and day 2 by i.p. injection. […] Clinical signs of EAE were scored by examiners blinded to experimental treatments using the following scale: 0=no clinical signs of disease; 1=piloerection and sluggish; 2=limp tail (ataxia); 2.5=ataxia with partial hind limb paralysis; 3=full paralysis of hind limb; 3.5=full paralysis of hind limb with paralysis of one fore limb; 4=full paralysis of two limbs; 4.5=moribund stage; 5=death. […]
Protein S-Nitrosylation was detected using the biotin-switch method with slight modification as described in our previous study (Kim et al., 2014). […]

[2] = test system: CD4+ T cells (TH1, TH2, TH17, Treg); assay: Fluorescence flow cytometry of CD4+ T cell subsets in spinal cords of EAE mice; assay type: in vivo, C57BL/6 mice; conditions: EAE mice at peak of disease, 1 mg/kg/day
Description: Female C57BL/6 mice of 8-12 weeks of age, purchased from Jackson Laboratory, were provided with food and water ad libitum and were kept in pathogen free animal care facility of Medical University of South Carolina (MUSC) throughout the study. All procedures were conducted in accordance with accepted standards of humane care as approved by the Institutional Animal Care and Use Committee (Approved number: AR #1644). EAE was induced as described previously (Nath et al., 2009). Briefly, mice were immunized subcutaneously in the flank regions with MOG35-55 peptide (MOG; 200 μg; Peptide International) emulsified (1:1) in 100 ul complete Freund's adjuvant (CFA) on day 0 and day 7. Additionally, 300 ng of Pertussis toxin (Sigma-Aldrich, St. Louis, Mo.) was given on day 0 and day 2 by i.p. injection. Pertussis toxin used as per the standardized protocol reported by us and other investigators for the induction of EAE (Nath et al., 2009). Similarly, healthy control group received subcutaneous injection of PBS and CFA emulsion on day 0 and day 7. Clinical signs of EAE were scored by examiners blinded to experimental treatments using the following scale: 0=no clinical signs of disease; 1=piloerection and sluggish; 2=limp tail (ataxia); 2.5=ataxia with partial hind limb paralysis; 3=full paralysis of hind limb; 3.5=full paralysis of hind limb with paralysis of one fore limb; 4=full paralysis of two limbs; 4.5=moribund stage; 5=death. […] The drug treatments were continued till the termination of the study (day 41 post immunization). EAE animals without drug treatment received PBS. Likewise, healthy controls received vehicle.
Fluorescence flow cytometry analysis for each subset of CD4+ T cells (TH1, TH2, TH17, CD4+CD25+ FOXP3+ Treg, and CD4+CD25+ FOXP3− Treg) were performed based on our previous report with modification (Nath et al., 2004). Briefly, control mice, EAE mice. EAE mice treated with GSNO. […] The isolated CD4+ T cells were then resuspended with complete RPMI-media in 12-well plates (5×10^6 cells' 2 ml per well) containing MOG peptide (25 μg/ml) for 48 hrs. Following the centrifugation, the resulted supernatants were collected for ELISA for CD4+ subset specific cytokines (see below). The cell pellets were washed with cell staining solution (ebioscience, Waltham, Mass. USA) and stained with fluorescence labeled antibody specific to IFN-γ for TH1. IL-4 for TH2, IL-17 for TH17, CD25+ for total Treg. CD25+ and FOXP3+ for FOXP3+ Treg, and CD25+ and FOXP3− for FOXP3-Tregs (ebioscience, Waltham, Mass., USA). The cells were counted and analyzed using Beackman Coulter instrument (Beckman Coulter, Inc., Brea, Calif., USA).

| Structure (SMILES) | thrombin-induced RhoA activation (RhoA) | spleen levels of protein-associated S-nitrosothiols [1] | number of CD4+ IFN-γ+ (TH1) cells in spinal cords [2] | number of CD4+ IL-17 (TH17) cells in spinal cords [2] | number of CD4+CD25+ FOXP3+ Treg cells in spinal cords [2] | number of CD4+CD25+ FOXP3− Treg cells in spinal cords [2] | number of TH2 cells in the CNS [2] | number of total Treg cells (CD4+CD25+) in spinal cords [2] |
| --- | --- | --- | --- | --- | --- | --- | --- | --- |
| Cl.O=S(=O)([O-])c1ccc(-c2c3nc(c(-c4ccc(S(=O)(=O)O)cc4)c4ccc([nH]4)c(-c4ccc(S(=O)(=O)O)cc4)c4nc(c(-c5ccc(S(=O)(=O)O)cc5)c5ccc2[nH]5)C=C4)C=C3)cc1.[Fe] [FeTPPS, 5,10,15,20-Tetrakis(4-sulfonatophenyl)porphyrinato Iron (III), Cl, reference compound] | decreased | – | – | – | – | – | – | – |
| Cc1cc(C(N)=O)ccc1-n1c(CCC(=O)O)ccc1-c1ccc(-n2ccnc2)cc1 [N6022, reference compound] | – | increased | reduced | reduced | increased | increased | increased | – |
| N[C@@H](CCC(=O)N[C@@H](CSN=O)C(=O)NCC(=O)O)C(=O)O [GSNO, S-nitrosoglutathione] | inhibited | increased | no obvious effect | significantly decreased | without altering | significantly increased | – | increased |
